# Measured values published in BindingDB's records for doi:10.1016/s0960-894x(01)00096-8 (Seoul National University, 2001).
# pIC50: −log10 of the molar value.
# Target: not listed separately
# Assay: Inhibitory concentration against methionyl-tRNA synthetase was determined by measuring decrease of the aminoacylation product [35S]- methionyl tRNA of Escherichia coli
row,pIC50,Structure (SMILES)
1,4.41,"COc1cc(C2=N[C@@H](COC(=O)[C@@H](N)CCSC)CO2)ccc1O [(S)-1-[(R)-2-(4-Hydroxy-3-methoxy-phenyl)-4,5-dihydro-oxazol-4-ylmethoxycarbonyl]-3-methylsulfanyl-propyl-ammonium]"

# Target: Isoleucine--tRNA ligase (Escherichia coli) (UniProt P00956)
# Sequence (P00956 whole entry, looked up): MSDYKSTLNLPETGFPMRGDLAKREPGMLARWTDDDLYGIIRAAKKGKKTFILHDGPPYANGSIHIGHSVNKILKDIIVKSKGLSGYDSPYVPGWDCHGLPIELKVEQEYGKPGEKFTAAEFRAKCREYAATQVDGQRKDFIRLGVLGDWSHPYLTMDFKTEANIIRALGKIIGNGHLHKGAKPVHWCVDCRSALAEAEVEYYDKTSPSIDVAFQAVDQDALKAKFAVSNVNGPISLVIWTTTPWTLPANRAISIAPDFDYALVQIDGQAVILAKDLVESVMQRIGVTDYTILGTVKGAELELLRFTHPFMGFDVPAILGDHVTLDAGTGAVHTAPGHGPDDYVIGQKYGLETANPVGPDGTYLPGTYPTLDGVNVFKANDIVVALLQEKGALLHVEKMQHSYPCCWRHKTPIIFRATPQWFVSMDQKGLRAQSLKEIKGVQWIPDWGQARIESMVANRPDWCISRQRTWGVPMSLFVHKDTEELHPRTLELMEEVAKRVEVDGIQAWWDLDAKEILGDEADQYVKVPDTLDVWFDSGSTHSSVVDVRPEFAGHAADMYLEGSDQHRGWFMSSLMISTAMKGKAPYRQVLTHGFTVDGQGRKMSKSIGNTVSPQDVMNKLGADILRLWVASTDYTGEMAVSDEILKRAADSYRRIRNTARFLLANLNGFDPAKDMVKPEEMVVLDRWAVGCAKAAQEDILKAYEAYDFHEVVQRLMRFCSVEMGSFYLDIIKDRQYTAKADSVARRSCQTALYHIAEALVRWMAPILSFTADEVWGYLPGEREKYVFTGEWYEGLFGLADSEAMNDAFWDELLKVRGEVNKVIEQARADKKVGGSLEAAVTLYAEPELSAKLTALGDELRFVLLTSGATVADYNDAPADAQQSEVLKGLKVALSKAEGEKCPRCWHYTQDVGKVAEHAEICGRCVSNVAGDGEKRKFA
# Assay: Inhibitory concentration against isoleucyl-tRNA synthetase was determined by measuring decrease of the aminoacylation product [3H]- isoleucyl tRNA of Escherichia coli
row,pIC50,Structure (SMILES)
1,4.68,CCC(C)[C@H](N)C(=O)OCCN(O)C(=O)Cc1ccc(OC)c(O)c1 (stereo partly drawn) [(S)-1-(2-{Hydroxy-[2-(3-hydroxy-4-methoxy-phenyl)-acetyl]-amino}-ethoxycarbonyl)-2-methyl-butyl-ammonium]
2,3.64,CCC(C)[C@H](N)C(=O)OCCN(O)C(=O)Cc1ccc(O)c(OC)c1 (stereo partly drawn) [(S)-1-(2-{Hydroxy-[2-(4-hydroxy-3-methoxy-phenyl)-acetyl]-amino}-ethoxycarbonyl)-2-methyl-butyl-ammonium]
3,3.97,CCC(C)[C@H](N)C(=O)OCCNC(=O)c1ccc(OC)c(O)c1 (stereo partly drawn) [(S)-1-[2-(3-Hydroxy-4-methoxy-benzoylamino)-ethoxycarbonyl]-2-methyl-butyl-ammonium]
4,4.19,CCC(C)[C@H](N)C(=O)OCCNC(=O)c1ccc(O)c(OC)c1 (stereo partly drawn) [(S)-1-[2-(4-Hydroxy-3-methoxy-benzoylamino)-ethoxycarbonyl]-2-methyl-butyl-ammonium]
5,4.24,"CCC(C)[C@H](N)C(=O)OCC1CC(c2ccc(OC)c(O)c2)=NO1 (stereo partly drawn) [(S)-1-[3-(3-Hydroxy-4-methoxy-phenyl)-4,5-dihydro-isoxazol-5-ylmethoxycarbonyl]-2-methyl-butyl-ammonium]"
6,4.10,"CCC(C)[C@H](N)C(=O)OCC1CC(c2ccc(O)c(OC)c2)=NO1 (stereo partly drawn) [(S)-1-[3-(4-Hydroxy-3-methoxy-phenyl)-4,5-dihydro-isoxazol-5-ylmethoxycarbonyl]-2-methyl-butyl-ammonium]"
7,4.41,"CCC(C)[C@H](N)C(=O)OC[C@@H]1COC(c2ccc(O)c(OC)c2)=N1 (stereo partly drawn) [(S)-1-[(S)-2-(4-Hydroxy-3-methoxy-phenyl)-4,5-dihydro-oxazol-4-ylmethoxycarbonyl]-2-methyl-butyl-ammonium]"
8,4.25,CCC(C)[C@H](N)C(=O)OCCNC(=O)Cc1ccc(OC)c(O)c1 (stereo partly drawn) [(S)-1-{2-[2-(3-Hydroxy-4-methoxy-phenyl)-acetylamino]-ethoxycarbonyl}-2-methyl-butyl-ammonium]
9,4.35,CCC(C)[C@H](N)C(=O)OCCNC(=O)Cc1ccc(O)c(OC)c1 (stereo partly drawn) [(S)-1-{2-[2-(4-Hydroxy-3-methoxy-phenyl)-acetylamino]-ethoxycarbonyl}-2-methyl-butyl-ammonium]
10,5.35,CCC(C)[C@H](N)C(=O)OCCN(O)C(=O)c1ccc(OC)c(O)c1 (stereo partly drawn) [(S)-1-{2-[Hydroxy-(3-hydroxy-4-methoxy-benzoyl)-amino]-ethoxycarbonyl}-2-methyl-butyl-ammonium]
11,4.89,CCC(C)[C@H](N)C(=O)OCCN(O)C(=O)c1ccc(O)c(OC)c1 (stereo partly drawn) [(S)-1-{2-[Hydroxy-(4-hydroxy-3-methoxy-benzoyl)-amino]-ethoxycarbonyl}-2-methyl-butyl-ammonium]

# Target: Isoleucine--tRNA ligase (Escherichia coli) (UniProt P00956)
# Assay: as above
# Remark: another data set of the same source
row,pIC50,Structure (SMILES)
1,4.30,"CCC(C)[C@H](N)C(=O)OC[C@H]1COC(c2ccc(O)c(OC)c2)=N1 (stereo partly drawn) [(S)-1-[(R)-2-(4-Hydroxy-3-methoxy-phenyl)-4,5-dihydro-oxazol-4-ylmethoxycarbonyl]-2-methyl-butyl-ammonium]"

# Target: Methionine--tRNA ligase (Escherichia coli) (UniProt P00959)
# Sequence (P00959 whole entry, looked up): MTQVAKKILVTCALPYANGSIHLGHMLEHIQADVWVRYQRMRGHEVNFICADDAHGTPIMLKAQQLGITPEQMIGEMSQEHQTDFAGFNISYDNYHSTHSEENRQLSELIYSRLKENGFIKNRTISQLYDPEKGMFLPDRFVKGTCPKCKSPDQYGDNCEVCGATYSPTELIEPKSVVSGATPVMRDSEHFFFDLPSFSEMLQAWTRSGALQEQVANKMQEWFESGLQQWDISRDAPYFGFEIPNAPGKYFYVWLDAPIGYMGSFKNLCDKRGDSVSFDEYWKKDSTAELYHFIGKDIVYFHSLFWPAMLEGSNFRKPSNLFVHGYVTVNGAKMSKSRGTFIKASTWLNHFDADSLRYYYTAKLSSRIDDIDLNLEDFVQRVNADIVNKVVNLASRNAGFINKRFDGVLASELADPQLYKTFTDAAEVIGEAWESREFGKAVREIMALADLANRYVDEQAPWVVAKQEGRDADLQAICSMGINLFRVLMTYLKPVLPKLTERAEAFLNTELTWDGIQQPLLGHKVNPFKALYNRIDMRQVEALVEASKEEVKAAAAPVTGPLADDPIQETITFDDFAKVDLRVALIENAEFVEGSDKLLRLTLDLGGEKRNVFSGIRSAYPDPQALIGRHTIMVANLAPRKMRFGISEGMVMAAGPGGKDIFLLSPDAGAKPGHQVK
# Assay: Inhibitory concentration against methionyl-tRNA synthetase was determined by measuring decrease of the aminoacylation product [35S]- methionyl tRNA of Escherichia coli
row,pIC50,Structure (SMILES)
1,4.06,COc1ccc(CC(=O)N(O)CCOC(=O)[C@@H](N)CCSC)cc1O [(S)-1-(2-{Hydroxy-[2-(3-hydroxy-4-methoxy-phenyl)-acetyl]-amino}-ethoxycarbonyl)-3-methylsulfanyl-propyl-ammonium]
2,3.89,COc1cc(CC(=O)N(O)CCOC(=O)[C@@H](N)CCSC)ccc1O [(S)-1-(2-{Hydroxy-[2-(4-hydroxy-3-methoxy-phenyl)-acetyl]-amino}-ethoxycarbonyl)-3-methylsulfanyl-propyl-ammonium]
3,4.11,COc1ccc(C(=O)NCCOC(=O)[C@@H](N)CCSC)cc1O [(S)-1-[2-(3-Hydroxy-4-methoxy-benzoylamino)-ethoxycarbonyl]-3-methylsulfanyl-propyl-ammonium]
4,4.22,COc1cc(C(=O)NCCOC(=O)[C@@H](N)CCSC)ccc1O [(S)-1-[2-(4-Hydroxy-3-methoxy-benzoylamino)-ethoxycarbonyl]-3-methylsulfanyl-propyl-ammonium]
5,4.33,"COc1ccc(C2=NOC(COC(=O)[C@@H](N)CCSC)C2)cc1O (stereo partly drawn) [(S)-1-[3-(3-Hydroxy-4-methoxy-phenyl)-4,5-dihydro-isoxazol-5-ylmethoxycarbonyl]-3-methylsulfanyl-propyl-ammonium]"
6,4.24,"COc1cc(C2=NOC(COC(=O)[C@@H](N)CCSC)C2)ccc1O (stereo partly drawn) [(S)-1-[3-(4-Hydroxy-3-methoxy-phenyl)-4,5-dihydro-isoxazol-5-ylmethoxycarbonyl]-3-methylsulfanyl-propyl-ammonium]"
7,4.47,"COc1cc(C2=N[C@H](COC(=O)[C@@H](N)CCSC)CO2)ccc1O [(S)-1-[(S)-2-(4-Hydroxy-3-methoxy-phenyl)-4,5-dihydro-oxazol-4-ylmethoxycarbonyl]-3-methylsulfanyl-propyl-ammonium]"
8,3.79,COc1ccc(CC(=O)NCCOC(=O)[C@@H](N)CCSC)cc1O [(S)-1-{2-[2-(3-Hydroxy-4-methoxy-phenyl)-acetylamino]-ethoxycarbonyl}-3-methylsulfanyl-propyl-ammonium]
9,4.03,COc1cc(CC(=O)NCCOC(=O)[C@@H](N)CCSC)ccc1O [(S)-1-{2-[2-(4-Hydroxy-3-methoxy-phenyl)-acetylamino]-ethoxycarbonyl}-3-methylsulfanyl-propyl-ammonium]
10,4.14,COc1ccc(C(=O)N(O)CCOC(=O)[C@@H](N)CCSC)cc1O [(S)-1-{2-[Hydroxy-(3-hydroxy-4-methoxy-benzoyl)-amino]-ethoxycarbonyl}-3-methylsulfanyl-propyl-ammonium]
11,4.49,COc1cc(C(=O)N(O)CCOC(=O)[C@@H](N)CCSC)ccc1O [(S)-1-{2-[Hydroxy-(4-hydroxy-3-methoxy-benzoyl)-amino]-ethoxycarbonyl}-3-methylsulfanyl-propyl-ammonium]
